Measured values reported in US10807994B2, “Heterocyclic compounds and uses thereof” (NUVATION BIO INC., priority 2017, dated 2020).
Structures can show the parent of a compound that is named as a salt.

Assays:
A549 cells = assay: Cytotoxicity assay (resazurin), A549 cells, 96 hr; assay type: cell-based; conditions: Homo sapiens, read-out: Cell Viability A549 IC50
Method: (§1) A549 (CCL-185; ATCC) and A427 (HTB-53; ATCC), both lung epithelial cell lines were seeded in their respective medium (DMEM/MEM, 10569044/41090101; Gibco) at a cell count of 1500 cells per 100 μL per well in a 96 well edge plate (167425; ThermoFisher). Cells were allowed to grow at 37° C. for 24 hr in 5% CO2 environment (culture conditions) in a Nuaire incubator (humidified). Serially diluted test compounds (100 μL) within the desired testing concentration ranges were added to the culture plate were further incubated in culture conditions for 72 hr and 96 hr for A427 and A549 respectively. The experiment was terminated at the designated incubation time by replacing the medium with 100 μL of 1 mM of resazurin (R7017; Sigma) prepared in respective culture medium, and the plates were further incubated in culture conditions for 4-6 hr. Fluorescence was recorded using a multimodal plate reader (Biotek Synergy Neo) at an excitation wavelength of 535 nm and emission wavelength of 590 nm to obtain relative fluorescence units. Data analysis was done by subtracting the background fluorescence (only medium blank) value from each reading and then normalizing with the vehicle control (DMSO treated cells) to obtain percent survival/proliferation. Percent survival was then subtracted by 100 to get the percent inhibition of proliferation which was used to calculate IC50 values. Potency of compounds in other cell lines (As-Pc-1, Panc-10.05, MDAMB231, A172) was determined in an analogous manner.

A427 cells [1] = assay: Cell proliferation assay (Cell Titer-Glo), A427 cells; assay type: cell-based; conditions: Homo sapiens, A-427, typically 72 hrs post-treatment
Method: (§2) The effects of test compounds were studied in five cell lines with various histotypes. The cancer cells (Table 4) were harvested during the logarithmic growth period and counted. Adjust cell concentrations to the appropriated number with respective medium, and add 90 μL cell suspensions to 96-well plates. After cells were seeded, the plates were shaken gently to distribute cells evenly and incubated at 37° C., 5% CO2 on day 1.
(§3) Cells were treated with test compounds at 9 concentrations within a desired concentration range (e.g. 1.5 nM-10 μM) on day 2 by series diluting the test compound stock solution (10 mM in DMSO) with culture medium. Cell viability was assessed by Cell Titer-Glo® as recommended by Promega (Cat. No.: G7572, Promega) typically 72 hrs post-treatment.
(§4) Cell viability data were plotted using GraphPad Prism (version 5, GraphPad Software, Inc., San Diego, Calif.). In addition, a nonlinear regression model with a sigmoidal dose response and variable slope within GraphPad Prism was used to calculate the IC50 value of individual test compounds.

A427 cells [2] = assay: Cytotoxicity assay (resazurin), A427 cells, 72 hr; assay type: cell-based; conditions: Homo sapiens, A-427, read-out: Cell Viability A427 IC50
Method: as §1

WEE1 kinase enzyme = WEE1 kinase enzyme (Homo sapiens (Human), UniProt P30291); assay: WEE1 IC50 determination, LanthaScreen Terbium labeled TR-FRET kinase assay; assay type: biochemical; conditions: WEE1 enzyme 1 nM
Sequence of WEE1 kinase enzyme (P30291 whole entry): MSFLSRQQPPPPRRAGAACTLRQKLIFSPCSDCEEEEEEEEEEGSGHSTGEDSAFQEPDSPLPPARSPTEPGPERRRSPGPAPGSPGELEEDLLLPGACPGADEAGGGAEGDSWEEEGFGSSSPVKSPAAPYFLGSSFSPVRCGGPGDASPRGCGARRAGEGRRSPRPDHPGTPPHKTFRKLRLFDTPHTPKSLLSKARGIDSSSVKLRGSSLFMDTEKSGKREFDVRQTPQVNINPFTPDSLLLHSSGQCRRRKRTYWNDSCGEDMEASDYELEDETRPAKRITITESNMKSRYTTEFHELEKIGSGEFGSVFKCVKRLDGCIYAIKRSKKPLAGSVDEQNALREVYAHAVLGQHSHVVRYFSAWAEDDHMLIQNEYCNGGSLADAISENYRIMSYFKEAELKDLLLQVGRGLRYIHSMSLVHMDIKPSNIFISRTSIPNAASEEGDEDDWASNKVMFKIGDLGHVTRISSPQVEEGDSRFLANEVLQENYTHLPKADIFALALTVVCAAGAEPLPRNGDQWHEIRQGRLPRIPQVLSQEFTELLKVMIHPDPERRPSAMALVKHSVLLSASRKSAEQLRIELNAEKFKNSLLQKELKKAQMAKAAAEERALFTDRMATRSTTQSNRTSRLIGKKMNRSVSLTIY
Method: IC50 values of compounds against WEE1 kinase enzyme were determined by LanthaScreen™ Terbium Labeled TR-FRET assay. Kinase assays were performed in 1× kinase buffer (# PV6135, Invitrogen, Life Technologies Grand Island, N.Y.) where total reaction volume was 10 μl in low-volume 384-well plates (#4511, Corning). Serially diluted compounds (3-fold) were incubated with WEE1 Enzyme (1 nM) (# PR7373A, Invitrogen, Life Technologies Grand Island, N.Y.) for 10 min, following which a mixture of ATP […] (# A1852, Sigma, St-Louis, Mo.) and fluorescent-PolyGT substrate (200 nM) (# PV3610, Invitrogen, Life Technologies Grand Island, N.Y.) was added and incubated in dark at room temperature for 1 h. After 1 h, 10 μl stop solution containing Terbium labeled antibody (4 nM) (# PV3529, Invitrogen, Life Technologies Grand Island, N.Y.) and EDTA (# E5134, Sigma, St-Louis, Mo.) (20 mM) in TR-FRET dilution buffer (# PV3574, Invitrogen, Life Technologies Grand Island, N.Y.) was added. Readings were taken in a Synergy Neo Plate reader (BioTek, Winooski) at single excitation of 340 nm and Dual emission at 495 nm and 520 nm respectively.
The % activity of test samples was calculated as (Sample−Min)*100/(Max−Min). [Max: DMSO control, complete reaction with enzyme & DMSO and Min: No enzyme & DMSO]. Percent inhibition (100-% activity) was fitted to the “four-parameter logistic model” in XLfit for determination of IC50 values.

A2780 cells = assay: Cell proliferation assay (Cell Titer-Glo), A2780 cells; assay type: cell-based; conditions: Homo sapiens, typically 72 hrs post-treatment
Method: as §2, §3, §4

A427 cells [3] = assay: Cell viability in combination with cisplatin in A427 cells (resazurin); assay type: cell-based; conditions: Homo sapiens, A-427, 24 hr 2.5 μM cisplatin
Method: The activity of test compounds in combination with cisplatin in A427 cells was determined. Cells were seeded in a 96 well plate at 2000 cells/well. The next day, cells were treated with 2.5 μM cisplatin or vehicle (1×PBS) and incubated in culture conditions (37° C., 5% CO2) for 24 hr. Following the incubation, culture medium was replaced with medium containing test compound and cisplatin/vehicle, and cells were further incubated in culture conditions for another 72 hr. By this procedure, cisplatin was either continued or discontinued after an initial 24-hr incubation. Addition of test compound was in concentrations needed to obtain an 8-point dose response curve, with concentrations prepared by 3-fold dilution. The assay was terminated upon addition of resazurin, incubation for 4 hr in culture conditions and measurement of fluorescence at excitation and emission wavelengths of 535 and 590 nm, respectively.

Panc-10.05 cells = assay: Cytotoxicity assay (resazurin), Panc-10.05 cells; assay type: cell-based; conditions: Homo sapiens, Panc1005, read-out: Cell Viability Panc 10.05 IC50
Method: as §1

A172 cells = assay: Cytotoxicity assay (resazurin), A172 cells; assay type: cell-based; conditions: Homo sapiens, A 172, read-out: Cell Viability A172 IC50
Method: as §1

MDAMB231 cells = assay: Cytotoxicity assay (resazurin), MDAMB231 cells; assay type: cell-based; conditions: Homo sapiens, MDA-MB-231, read-out: Cell Viability MDAMB 231 IC50
Method: as §1

As-Pc-1 cells = assay: Cytotoxicity assay (resazurin), As-Pc-1 cells; assay type: cell-based; conditions: Homo sapiens, ASPC1, read-out: Cell Viability AsPC-1 IC50
Method: as §1

[4] = then compound + cisplatin 72 hr, read-out: Cell viability IC50 in A427 cells with 2.5 μM cisplatin: 24 hr cisplatin then compound + cisplatin
[5] = then compound alone 72 hr, read-out: Cell viability IC50 in A427 cells with 2.5 μM cisplatin: 24 hr cisplatin then compound

IC50 (WEE1 kinase enzyme) [µM]	IC50 (A2780 cells) [µM]	Structure (SMILES)	IC50 (A549 cells) [µM]	IC50 (A427 cells [1]) [µM]	IC50 (A427 cells [2]) [µM]	IC50 (A427 cells [3]; [4]) [µM]	IC50 (A427 cells [3]; [5]) [µM]	IC50 (Panc-10.05 cells) [µM]	IC50 (A172 cells) [µM]	IC50 (MDAMB231 cells) [µM]	IC50 (As-Pc-1 cells) [µM]
0.069		O=C1c2cnc(Nc3ccc(N4CCNCC4)cc3)nc2OCN1c1c(Cl)cccc1Cl [Example 1.5]	3.78	4.29	3.91						
0.011	3.85	CC1(C)CNCc2cc(Nc3ncc4c(n3)OCN(c3c(Cl)cccc3Cl)C4=O)ccc21 [Example 1.10]	2.6	1.67	1.99	< 0.014	0.36				
0.0735		O=C1c2cnc(Nc3ccc(C4CCNCC4)cc3)nc2OCN1c1c(Cl)cccc1Cl [Example 1.12]	4.7	3.43	3.58			3.17	7.13	9.04	7.88
0.049		O=C1c2cnc(Nc3ccc(N4CCNCC4)c(CO)c3)nc2OCN1c1c(Cl)cccc1Cl [Example 1.16]	3.98	3.04	2.13	< 0.014	0.18				
0.048		CN1CCN(c2ccc(Nc3ncc4c(n3)OCN(c3c(Cl)cccc3Cl)C4=O)cc2CO)CC1 [Example 1.20]	6.02	3.64	5.5						
0.035		O=C1c2cnc(Nc3ccc4c(c3)CNCC4)nc2OCN1c1c(Cl)cccc1Cl [Example 1.24]	6.45	2.85	2.96	0.06	0.12				
0.052		O=C1c2cnc(Nc3ccc(N4CCNCC4)cc3)nc2OCN1c1c(F)cccc1Cl [Example 1.27]	4.39	7.75	6.97						
0.028		COc1cc(Nc2ncc3c(n2)OCN(c2c(Cl)cccc2Cl)C3=O)ccc1C1CCNCC1 [Example 1.50, 3-(2,6-dichlorophenyl)-7-(3-methoxy-4-(piperidin-4-yl)phenylamino)-2H-pyrimido[5,4-e][1,3]oxazin-4(3H)-one]	2.79		3.48						
0.011		O=C1c2cnc(Nc3ccc4c(c3)CNCC43CC3)nc2OCN1c1c(Cl)cccc1Cl [Example 1.51, 3-(2,6-dichlorophenyl)-7-(2′,3′-dihydro-1′H-spiro[cyclopropane-1,4′-isoquinoline]-7′-ylamino)-2H-pyrimido[5,4-e][1,3]oxazin-4(3H)-one]	6.45		3.04			3.34	8	8.76	3.21
0.0505		CN1CCC(c2ccc(Nc3ncc4c(n3)OCN(c3c(Cl)cccc3Cl)C4=O)cc2)CC1 [Example 1.52, 3-(2,6-dichlorophenyl)-7-(4-(1-methylpiperidin-4-yl)phenylamino)-2H-pyrimido[5,4-e][1,3]oxazin-4(3H)-one]	4.72		3.35						
0.033		COc1cc(Nc2ncc3c(n2)OCN(c2c(Cl)cccc2Cl)C3=O)ccc1N1CCNCC1 [Example 1.53, 3-(2,6-dichlorophenyl)-7-(3-methoxy-4-(piperazin-1-yl)phenylamino)-2H-pyrimido[5,4-e][1,3]oxazin-4(3H)-one dihydrochloride]	4.72		3.61			9.34	9.68	10.5	2.41
0.2		CNCCNc1ccc(Nc2ncc3c(n2)OCN(c2c(Cl)cccc2Cl)C3=O)cc1 [Example 1.54, 3-(2,6-dichlorophenyl)-7-(4-(2-(methylamino)ethylamino)phenylamino)-2H-pyrimido[5,4-e][1,3]oxazin-4(3H)-one Hydrochloride]	9.58		10.5						
0.106	6.8	N#Cc1cc(Nc2ncc3c(n2)OCN(c2c(Cl)cccc2Cl)C3=O)ccc1N1CCNCC1 [Example 1.55, 5-(3-(2,6-dichlorophenyl)-4-oxo-3,4-dihydro-2H-pyrimido[5,4-e][1,3]oxazin-7-ylamino)-2-(piperazin-1-yl)benzonitrile]	1.59		2.32	< 0.014	0.53				
> 5		O=C1c2cnc(Nc3ccc(N4CCCC4)cc3)nc2OCN1c1c(Cl)cccc1Cl [Example 1.56, 3-(2,6-dichlorophenyl)-7-(4-(pyrrolidin-1-yl)phenylamino)-2H-pyrimido[5,4-e][1,3]oxazin-4(3H)-one]	1.86		10.5						
0.101		CNCC(=O)N1CCN(c2ccc(Nc3ncc4c(n3)OCN(c3c(Cl)cccc3Cl)C4=O)cc2)CC1 [Example 1.57, 3-(2,6-dichlorophenyl)-7-(4-(4-(2-(methylamino)acetyl)piperazin-1-yl)phenylamino)-2H-pyrimido[5,4-e][1,3]oxazin-4(3H)-one hydrochloride]	6.23		4.86						
0.234		O=C1c2cnc(Nc3ccc(N4CCN(CCO)CC4)cc3)nc2OCN1c1c(Cl)cccc1Cl [Example 1.58, 3-(2,6-dichlorophenyl)-7-(4-(4-(2-hydroxyethyl)piperazin-1-yl)phenylamino)-2H-pyrimido[5,4-e][1,3]oxazin-4(3H)-one]	12.3		7.12						
0.0435		Cc1cc(Nc2ncc3c(n2)OCN(c2c(Cl)cccc2Cl)C3=O)ccc1C1CCNCC1 [Example 1.60]	8.34		2.58			2.85	4.8	5.34	2.91
0.021		CC1(C)NCCc2cc(Nc3ncc4c(n3)OCN(c3c(Cl)cccc3Cl)C4=O)ccc21 [Example 1.227]	9.04		2.2			4.93	6.62	8.78	2.94
